Data from patent US20230322715A1, “BROAD SPECTRUM ANTI-CANCER COMPOUNDS” (The Regents of the University of California, priority 2019, published 2023).
“And” between values parts separate entries of the source, which are not always exact repeats. Identical values can stand only once.

target: FTO (Homo sapiens (Human), UniProt Q9C0B1); assay: Fluorescence enzymatic inhibition assay (m6A7-Broccoli RNA / DFHBI-1T) against FTO; assay type: biochemical; details: comparison of enzymatic IC50 values
Method: In order to determine their efficacy as FTO inhibitors, the compounds were screened by a fluorescence enzymatic inhibition assay developed previously by the Jaffrey lab.^44 Briefly, a nonfluorescent methylated RNA substrate termed “m6A7-Broccoli” is incubated with FTO in the presence of 2-oxoglutarate (300 μM), (NH4)2Fe(SO4)2·6H2O (300 μM), and L-ascorbate (2 mM) for 2 hours at room temperature in reaction buffer (50 mM NaHEPES, pH 6).
(§1) Inhibitors were added in concentrations ranging from 0.008-40 μM; all inhibitors were dissolved in DMSO and added to a final concentration of 0.2% DMSO. […] After incubation at room temperature for 2 hours, the plates were left at 4° C. overnight (16 hours) to allow DFHBI-1T to bind to A7-Broccoli RNA. […] Sigmoidal dose-response curves were fitted in GraphPad Prism 6. All assays were performed in triplicate, with additional repetitions added as necessary.

Chain of FTO (Q9C0B1 whole entry): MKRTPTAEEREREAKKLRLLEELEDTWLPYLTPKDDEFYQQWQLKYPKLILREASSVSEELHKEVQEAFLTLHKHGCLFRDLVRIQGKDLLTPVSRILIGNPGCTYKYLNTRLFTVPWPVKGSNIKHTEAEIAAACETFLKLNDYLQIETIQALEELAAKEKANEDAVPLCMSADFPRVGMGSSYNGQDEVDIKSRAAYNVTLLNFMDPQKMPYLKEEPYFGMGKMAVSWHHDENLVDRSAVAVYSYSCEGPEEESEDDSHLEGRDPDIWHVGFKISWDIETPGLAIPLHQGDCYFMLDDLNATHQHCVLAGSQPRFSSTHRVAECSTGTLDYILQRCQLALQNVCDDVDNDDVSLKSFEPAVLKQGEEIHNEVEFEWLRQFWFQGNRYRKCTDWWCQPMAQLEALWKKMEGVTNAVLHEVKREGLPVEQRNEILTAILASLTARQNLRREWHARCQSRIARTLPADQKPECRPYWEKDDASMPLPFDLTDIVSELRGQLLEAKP

Compound | selectivity between FTO and ALKBH5
COc1ccc2cc(-c3cncnc3)ccc2c1 [FTO-5, 5-(6-methoxynaphthalen-2-yl)pyrimidine] | five-fold or higher
COc1ccc2cc(-c3cnc(OC)nc3)ccc2c1 [FTO-8, 2-methoxy-5-(6-methoxynaphthalen-2-yl)pyrimidine] | equivalent inhibitors towards both demethylases
Nc1ncc(-c2cccc(Nc3ccccc3)c2)cn1 [FTO-9, 5-(3-(phenylamino)phenyl)pyrimidin-2-amine] | distinct preference towards ALKBH5 over FTO
Nc1ncc(-c2ccc3cc(O)ccc3c2)cn1 [FTO-10, 6-(2-aminopyrimidin-5-yl)naphthalen-2-ol] | equivalent inhibitors towards both demethylases
COc1ncc(-c2ccc3nc(C)ccc3c2)cn1 [FTO-11, 6-(2-methoxypyrimidin-5-yl)-2-methylquinoline] | equivalent inhibitors towards both demethylases
COc1ccc2cc(-c3cnc(N)nc3)ccc2c1 [FTO-12, 5-(6-methoxynaphthalen-2-yl)pyrimidin-2-amine] | five-fold or higher
Nc1ncc(-c2cccc(OCc3ccccc3)c2)cn1 [FTO-13, 5-(3-(benzyloxy)phenyl)pyrimidin-2-amine] | distinct preference towards ALKBH5 over FTO
COCCNc1ncc(-c2ccc3nc(C)ccc3c2)cn1 [FTO-19, N-(2-methoxyethyl)-5-(2-methylquinolin-6-yl)pyrimidin-2-amine] | equivalent inhibitors towards both demethylases
COCCNc1ncc(-c2ccc(CO)c(OC)c2)cn1 [FTO-20, (2-methoxy-4-(2-((2-methoxyethyl)amino)pyrimidin-5-yl)phenyl)methanol] | five-fold or higher

same assay, conditions: m6A7-Broccoli fluorescence assay, 0.250 μM FTO, inhibitor up to 40 μM, triplicate; read-out: Enzymatic IC50 FTO

Compound | IC50
Oc1ccc2cc(-c3cncnc3)ccc2c1 [FTO-1, 6-(pyrimidin-5-yl)naphthalen-2-ol] | 41.7 µM
COc1ccc2cc(-c3cncnc3)ccc2c1 [FTO-5, 5-(6-methoxynaphthalen-2-yl)pyrimidine] | 13.4 ± 2.3 µM
Cc1ccc2cc(-c3cncnc3)ccc2n1 [FTO-7, 2-methyl-6-(pyrimidin-5-yl)quinoline] | 29.1 µM
Nc1ncc(-c2cccc(Nc3ccccc3)c2)cn1 [FTO-9, 5-(3-(phenylamino)phenyl)pyrimidin-2-amine] | > 40 µM and 43.8 µM
Nc1ncc(-c2ccc3cc(O)ccc3c2)cn1 [FTO-10, 6-(2-aminopyrimidin-5-yl)naphthalen-2-ol] | 48.1 µM
COc1ncc(-c2ccc3nc(C)ccc3c2)cn1 [FTO-11, 6-(2-methoxypyrimidin-5-yl)-2-methylquinoline] | 11.3 µM
COc1ccc2cc(-c3cnc(N)nc3)ccc2c1 [FTO-12, 5-(6-methoxynaphthalen-2-yl)pyrimidin-2-amine] | 18.3 ± 1.7 µM
Nc1ncc(-c2cccc(OCc3ccccc3)c2)cn1 [FTO-13, 5-(3-(benzyloxy)phenyl)pyrimidin-2-amine] | 36.7 µM
COCCNc1ncc(-c2ccc3nc(C)ccc3c2)cn1 [FTO-19, N-(2-methoxyethyl)-5-(2-methylquinolin-6-yl)pyrimidin-2-amine] | 25.2 µM
COCCNc1ncc(-c2ccc(CO)c(OC)c2)cn1 [FTO-20, (2-methoxy-4-(2-((2-methoxyethyl)amino)pyrimidin-5-yl)phenyl)methanol] | 17.2 ± 2.9 µM

target: T1, ALKBH5 (Homo sapiens (Human), UniProt Q6P6C2); assay: Fluorescence enzymatic inhibition assay (m6A7-Broccoli RNA / DFHBI-1T) against ALKBH5; assay type: biochemical; details: highest concentration measured
T1 sequence (Q6P6C2 whole entry): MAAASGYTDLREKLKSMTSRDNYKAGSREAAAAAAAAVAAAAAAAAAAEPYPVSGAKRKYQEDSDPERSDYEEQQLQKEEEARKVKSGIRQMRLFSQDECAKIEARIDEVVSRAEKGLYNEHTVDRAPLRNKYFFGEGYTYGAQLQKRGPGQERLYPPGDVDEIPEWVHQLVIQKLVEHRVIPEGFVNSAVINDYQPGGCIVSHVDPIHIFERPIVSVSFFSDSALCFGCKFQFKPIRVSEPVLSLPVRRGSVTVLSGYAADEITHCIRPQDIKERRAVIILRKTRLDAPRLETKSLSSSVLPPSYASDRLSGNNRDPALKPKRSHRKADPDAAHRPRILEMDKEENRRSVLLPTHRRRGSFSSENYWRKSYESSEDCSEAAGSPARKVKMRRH
Method: as §1

Compound | inhibition of ALKBH5 at the highest concentration measured
Oc1ccc2cc(-c3cncnc3)ccc2c1 [FTO-1, 6-(pyrimidin-5-yl)naphthalen-2-ol] | no measurable inhibition
COc1ccc2cc(-c3cncnc3)ccc2c1 [FTO-5, 5-(6-methoxynaphthalen-2-yl)pyrimidine] | no measurable inhibition
Cc1ccc2cc(-c3cncnc3)ccc2n1 [FTO-7, 2-methyl-6-(pyrimidin-5-yl)quinoline] | no measurable inhibition
COc1ccc2cc(-c3cnc(N)nc3)ccc2c1 [FTO-12, 5-(6-methoxynaphthalen-2-yl)pyrimidin-2-amine] | no measurable inhibition
COCCNc1ncc(-c2ccc(OCc3ccccc3)cc2)cn1 [FTO-18, 5-(4-(benzyloxy)phenyl)-N-(2-methoxyethyl)pyrimidin-2-amine] | no measurable inhibition

same assay, conditions: m6A7-Broccoli fluorescence assay, 0.250 μM ALKBH5; read-out: Enzymatic IC50 ALKBH5

Compound | IC50 [µM]
Oc1ccc2cc(-c3cncnc3)ccc2c1 [FTO-1, 6-(pyrimidin-5-yl)naphthalen-2-ol] | > 40
COc1ccc2cc(-c3cncnc3)ccc2c1 [FTO-5, 5-(6-methoxynaphthalen-2-yl)pyrimidine] | > 40
Cc1ccc2cc(-c3cncnc3)ccc2n1 [FTO-7, 2-methyl-6-(pyrimidin-5-yl)quinoline] | > 40
COc1ccc2cc(-c3cnc(OC)nc3)ccc2c1 [FTO-8, 2-methoxy-5-(6-methoxynaphthalen-2-yl)pyrimidine] | 16.4
Nc1ncc(-c2cccc(Nc3ccccc3)c2)cn1 [FTO-9, 5-(3-(phenylamino)phenyl)pyrimidin-2-amine] | 5.2
Nc1ncc(-c2ccc3cc(O)ccc3c2)cn1 [FTO-10, 6-(2-aminopyrimidin-5-yl)naphthalen-2-ol] | 36.1
COc1ncc(-c2ccc3nc(C)ccc3c2)cn1 [FTO-11, 6-(2-methoxypyrimidin-5-yl)-2-methylquinoline] | 19.5
COc1ccc2cc(-c3cnc(N)nc3)ccc2c1 [FTO-12, 5-(6-methoxynaphthalen-2-yl)pyrimidin-2-amine] | > 40
Nc1ncc(-c2cccc(OCc3ccccc3)c2)cn1 [FTO-13, 5-(3-(benzyloxy)phenyl)pyrimidin-2-amine] | 14.9
COCCNc1ncc(-c2ccc(OCc3ccccc3)cc2)cn1 [FTO-18, 5-(4-(benzyloxy)phenyl)-N-(2-methoxyethyl)pyrimidin-2-amine] | > 40
COCCNc1ncc(-c2ccc3nc(C)ccc3c2)cn1 [FTO-19, N-(2-methoxyethyl)-5-(2-methylquinolin-6-yl)pyrimidin-2-amine] | 53.5
COCCNc1ncc(-c2ccc(CO)c(OC)c2)cn1 [FTO-20, (2-methoxy-4-(2-((2-methoxyethyl)amino)pyrimidin-5-yl)phenyl)methanol] | 90.2 ± 7.8

tested on: TS576 glioblastoma stem cells; assay: Neurosphere (tumorosphere) formation assay, TS576; assay type: cell-based, human; details: TS576, 30 μM inhibitor, 2 days, vs vehicle control
Method: To understand the effects of our FTO inhibitors on the self-renewal properties of GSCs, tumorospheres cultured from the patient-derived GSC line TS576 were treated with 30 μM of FTO-04, FTO-10, FTO-11, or FTO-12 (FIG. 4-3AB; cell line gifted from the Furnari lab)^0.45, 46 The GSCs were cultured in sphere-forming assays for 24 hours, then treated with either inhibitors or DMSO control for 2 days. The size of the tumorospheres was calculated using ImageJ.
Early passaged GSCs were used to understand the efficacy of ALK-04 on the self-renewal capacity of GSCs by tumorsphere-formation assay as described earlier^10, 11. In brief, GSCs were seeded at 4×10^4 cells in 24 well plate and cultured for 3 days followed by treatment with ALK-04 inhibitors at 20 μM daily for 3 days. After 3 days of treatment the images of the tumorospheres were imaged with phase contrast microscope and size was measured with Image J, to understand the effects of drugs on the self-renewal of GSCs on sphere formation. This process was also repeated for healthy neural stem cells (hNSCs) treated daily with 20 μM ALK-04 for three days to assess the therapeutic ratio.

Compound | size of tumorospheres
Nc1ncc(-c2ccc3cc(O)ccc3c2)cn1 [FTO-10, 6-(2-aminopyrimidin-5-yl)naphthalen-2-ol] | significant reduction in size of the tumorospheres
COc1ncc(-c2ccc3nc(C)ccc3c2)cn1 [FTO-11, 6-(2-methoxypyrimidin-5-yl)-2-methylquinoline] | significant reduction in size of the tumorospheres
COc1ccc2cc(-c3cnc(N)nc3)ccc2c1 [FTO-12, 5-(6-methoxynaphthalen-2-yl)pyrimidin-2-amine] | significant reduction in size of the tumorospheres

tested on: not given; assay: not given; details: not given

Compound | melting point [°C]
Oc1ccc2cc(-c3cncnc3)ccc2c1 [FTO-1, 6-(pyrimidin-5-yl)naphthalen-2-ol] | 230
COc1ccc2cc(-c3cncnc3)ccc2c1 [FTO-5, 5-(6-methoxynaphthalen-2-yl)pyrimidine] | 230
Cc1ccc2cc(-c3cncnc3)ccc2n1 [FTO-7, 2-methyl-6-(pyrimidin-5-yl)quinoline] | 230
COc1ccc2cc(-c3cnc(OC)nc3)ccc2c1 [FTO-8, 2-methoxy-5-(6-methoxynaphthalen-2-yl)pyrimidine] | 230
Nc1ncc(-c2cccc(Nc3ccccc3)c2)cn1 [FTO-9, 5-(3-(phenylamino)phenyl)pyrimidin-2-amine] | 230
Nc1ncc(-c2ccc3cc(O)ccc3c2)cn1 [FTO-10, 6-(2-aminopyrimidin-5-yl)naphthalen-2-ol] | 230
COc1ncc(-c2ccc3nc(C)ccc3c2)cn1 [FTO-11, 6-(2-methoxypyrimidin-5-yl)-2-methylquinoline] | 230
COc1ccc2cc(-c3cnc(N)nc3)ccc2c1 [FTO-12, 5-(6-methoxynaphthalen-2-yl)pyrimidin-2-amine] | 230
Nc1ncc(-c2cccc(OCc3ccccc3)c2)cn1 [FTO-13, 5-(3-(benzyloxy)phenyl)pyrimidin-2-amine] | 230
COCCNc1ncc(-c2ccc(OCc3ccccc3)cc2)cn1 [FTO-18, 5-(4-(benzyloxy)phenyl)-N-(2-methoxyethyl)pyrimidin-2-amine] | 230
COCCNc1ncc(-c2ccc3nc(C)ccc3c2)cn1 [FTO-19, N-(2-methoxyethyl)-5-(2-methylquinolin-6-yl)pyrimidin-2-amine] | 230
COCCNc1ncc(-c2ccc(CO)c(OC)c2)cn1 [FTO-20, (2-methoxy-4-(2-((2-methoxyethyl)amino)pyrimidin-5-yl)phenyl)methanol] | 230

target: T1, ALKBH5; assay: not given; details: reported from Huang et. al 2019; read-out: Enzymatic IC50 ALKBH5; cited from earlier work

Compound | IC50 [µM]
Cc1noc(C)c1-c1cc(Cl)c(Nc2ccccc2C(=O)O)c(Cl)c1 [FB23] | > 40

tested on: cancer cells by cancer type; assay: not given; details: Breast; read-out: EC50 of Chemo SOC; cited from earlier work

Compound | EC50 [µM]
O=C(c1cc(Cc2n[nH]c(=O)c3ccccc23)ccc1F)N1CCN(C(=O)C2CC2)CC1 [Olaparib] | 30
N.N.[Cl][Pt][Cl] [cisplatin] | 5
CS(=O)(=O)CCNCc1ccc(-c2ccc3ncnc(Nc4ccc(OCc5cccc(F)c5)c(Cl)c4)c3c2)o1 [lapatinib] | 137

same assay, conditions: Colon; read-out: EC50 of Chemo SOC; cited from earlier work

Compound | EC50 [µM]
O=c1[nH]cc(F)c(=O)[nH]1 [5FU, fluorouracil] | 2 to 10
O=C1[O][Pt]2([NH][C@@H]3CCCC[C@H]3[NH]2)[O]C1=O [oxalplatin, oxaliplatin] | 2 to 20

same assay, conditions: Esophagoel; read-out: EC50 of Chemo SOC; cited from earlier work

Compound | EC50 [µM]
N.N.[Cl][Pt][Cl] [cisplatin] | 8
O=C1[O][Pt]2([NH][C@@H]3CCCC[C@H]3[NH]2)[O]C1=O [oxalplatin, oxaliplatin] | 37

same assay, conditions: Gastric; read-out: EC50 of Chemo SOC; cited from earlier work

Compound | EC50 [µM]
O=c1[nH]cc(F)c(=O)[nH]1 [5FU, fluorouracil] | 28.8
N.N.[Cl][Pt][Cl] [cisplatin] | 13.5 to 25

same assay, conditions: Leukemia; read-out: EC50 of Chemo SOC; cited from earlier work

Compound | EC50 [µM]
Nc1ccn([C@@H]2O[C@H](CO)[C@@H](O)[C@@H]2O)c(=O)n1 [Cytarabine] | 0.25 to 3.5

same assay, conditions: Ovarian; read-out: EC50 of Chemo SOC; cited from earlier work

Compound | EC50 [µM]
N.N.[Cl][Pt][Cl] [cisplatin] | 2 to 40

same assay, conditions: Pancreatic; read-out: EC50 of Chemo SOC; cited from earlier work

Compound | EC50 [µM]
N.N.[Cl][Pt][Cl] [cisplatin] | 20 to 26
Nc1ccn([C@@H]2O[C@H](CO)[C@@H](O)C2(F)F)c(=O)n1 [gemcitabine] | < 1
O=C1[O][Pt]2([NH][C@@H]3CCCC[C@H]3[NH]2)[O]C1=O [oxalplatin, oxaliplatin] | 3.5 to 10
